Data set [1] can be described thus: Tumor cell line cytotoxicity of flavonoid dimers, LCC6MDR. The class given is cell-based, human. As to conditions: human, LCC6MDR cells, IC50 of compound alone. On the procedure: (§1) (b) Tumor Cell Line Cytotoxicity. The tumor cytotoxicity assays of flavonoid dimers were performed against LCC6, LCC6MDR and L929 cell lines. […] In brief, LCC6, LCC6MDR and L929 cells were seeded into 96-well flat bottom microtiter plate at 1×10^4 cells per well in a final volume of 100 μL media, respectively. A graded dose of flavonoid dimers was added into wells. The plate was incubated at 37° C. for 72 hrs at the atmosphere 5% CO2 in the air. The % of survivors was determined.

Data set [2] can be described thus: Tumor cell line cytotoxicity of flavonoid dimers, LCC6. It counts as cell-based, human. As to conditions: human, LCC6 cells, IC50 of compound alone. On the procedure:
as §1

Data set [3] is described as follows: Cytotoxicity of flavonoid dimers, L929 mouse fibroblast. It counts as cell-based. As to conditions: mouse, L929 fibroblast cells, IC50 of compound alone, 72 hrs, mouse fibroblast. The procedure: as §1
Data set [4] has as its system LdAG83 promastigotes (wild type). The experiment in a line: In vitro anti-promastigote activity, LdAG83. It counts as cell-based, Leishmania donovani. As to conditions: Leishmania donovani, 72 h, read-out: Anti-promastigotes activity (IC50, μM) LdAG83. The procedure:
(§2) Cell Lines and Cell Culture. Promastigotes of Leishmania donovani (wild type LdAG83, pentamidine-resistant LdAG83-PentR50, and SSG-resistant Ld39) and Leishmania major [MHOM/IL/67/JERICHO II (Lm50122), from ATCC] were used in this study.
(§3) In Vitro Anti-Promastigote Activity. The viability of promastigotes was determined by the Cell Titer 96° Aqueous Assay (Promega) that employs a tetrazolium compound (MTS, 2-(4,5-Dimethylthiazol-2-yl-)-5-[3-(carboxymethoxy)phenyl]-2-(4-sulfophenyl)-2H-tetrazolium) and electron coupling reagent, phenazine methosulfate (PMS).^7 Promastigotes were seeded into 96-well flat bottom microtiter plate at 1×10^5 cells per well in a final volume of 100 μL medium and incubated with a series concentration of synthetic flavonoid dimers or known antileishmanials. The parasites were incubated at 27° C. for 72 hrs. Fresh solution of 2 mg/mL MTS and 0.92 mg/mL PMS were prepared in a ratio of 20:1 (MTS:PMS). After 72 hrs incubation, 10 μL of MTS:PMS mixture was added into each well of microtiter plate. The plate was then incubated at 27° C. for 4 hrs for color development. After 4 hrs incubation, the OD values were determined at 490 nm using automatic microtiter plate reader (Bio-Rad).

In data set [5] the test system is Ld39 promastigotes (SSG-resistant). Put plainly: In vitro anti-promastigote activity, Ld39. As to conditions: Leishmania donovani, 72 h, read-out: Anti-promastigotes activity (IC50, μM) Ld39. The class given is cell-based, Leishmania donovani. The procedure: as §2, §3
The next data set relates to Raw264.7 cells. Put plainly: Cytotoxicity, mouse macrophage Raw264.7. The class given is cell-based. As to conditions: Mus musculus, RAW264.7, 72 h. On the procedure: (a) Mouse Macrophage Raw 264.7 and Primary Mouse PEM Cells. The cytotoxicity assay of reference antileishmanial compounds and the compounds of this invention was performed against mouse macrophage cell line, Raw 264.7 and primary mouse PEM cells in order to calculate the therapeutic index (IC50 value for cytotoxicity of the compounds divided by IC50 value for antileishmanial activity of the compounds). The cells were grown in supplemented DMEM media in an atmosphere of 95% air with 5% CO2 at 37° C. In brief, Raw264.7 cells and PEM cells were seeded into 96-well flat bottom microtiter plate at 1×10^4cells and 2×10^4 cells per well in a final volume of 100 μL media, respectively. A graded dose of flavonoid dimers or antileishmanials was added into wells. The plate was incubated at 37° C. for 72 hrs at the atmosphere 5% CO2 in the air. The % of survivors was determined.

The next data set deals with Pgp (LCC6MDR cells) (Homo sapiens, UniProt P08183). The experiment in a line: Cell proliferation assay: Pgp-modulating activity, reversal of anticancer drug resistance in LCC6MDR cells. As to conditions: for RF (Relative Fold), cpd at 0.5 μM: RF = (IC50 without modulator)/(IC50 with 0.5 μM modulator); for RF (Relative Fold), cpd at 0.5 μM / RF (Relative Fold), cpd at 1 μM: paclitaxel; for RF (Relative Fold), cpd at 0.5 μM / RF (Relative Fold), cpd at 1 μM / EC50: LCC6MDR; for RF (Relative Fold), cpd at 1 μM: RF = (IC50 without modulator)/(IC50 with 1.0 μM modulator); for EC50: EC50 of compounds for reversing anticancer drug resistance (nM), Paclitaxel; for Therapeutic index: IC50 of compounds for L929/EC50 of compounds for lowering paclitaxel drug resistance.

The record followed here is US8980848B2, “Flavonoid dimers and their use” (The Hong Kong Polytechnic University, priority 2010, dated 2015).

The structures appear in SMILES notation. A value given as a limit tells only on which side of the number the result lay.

Chain of Pgp (LCC6MDR cells) (P08183 whole entry): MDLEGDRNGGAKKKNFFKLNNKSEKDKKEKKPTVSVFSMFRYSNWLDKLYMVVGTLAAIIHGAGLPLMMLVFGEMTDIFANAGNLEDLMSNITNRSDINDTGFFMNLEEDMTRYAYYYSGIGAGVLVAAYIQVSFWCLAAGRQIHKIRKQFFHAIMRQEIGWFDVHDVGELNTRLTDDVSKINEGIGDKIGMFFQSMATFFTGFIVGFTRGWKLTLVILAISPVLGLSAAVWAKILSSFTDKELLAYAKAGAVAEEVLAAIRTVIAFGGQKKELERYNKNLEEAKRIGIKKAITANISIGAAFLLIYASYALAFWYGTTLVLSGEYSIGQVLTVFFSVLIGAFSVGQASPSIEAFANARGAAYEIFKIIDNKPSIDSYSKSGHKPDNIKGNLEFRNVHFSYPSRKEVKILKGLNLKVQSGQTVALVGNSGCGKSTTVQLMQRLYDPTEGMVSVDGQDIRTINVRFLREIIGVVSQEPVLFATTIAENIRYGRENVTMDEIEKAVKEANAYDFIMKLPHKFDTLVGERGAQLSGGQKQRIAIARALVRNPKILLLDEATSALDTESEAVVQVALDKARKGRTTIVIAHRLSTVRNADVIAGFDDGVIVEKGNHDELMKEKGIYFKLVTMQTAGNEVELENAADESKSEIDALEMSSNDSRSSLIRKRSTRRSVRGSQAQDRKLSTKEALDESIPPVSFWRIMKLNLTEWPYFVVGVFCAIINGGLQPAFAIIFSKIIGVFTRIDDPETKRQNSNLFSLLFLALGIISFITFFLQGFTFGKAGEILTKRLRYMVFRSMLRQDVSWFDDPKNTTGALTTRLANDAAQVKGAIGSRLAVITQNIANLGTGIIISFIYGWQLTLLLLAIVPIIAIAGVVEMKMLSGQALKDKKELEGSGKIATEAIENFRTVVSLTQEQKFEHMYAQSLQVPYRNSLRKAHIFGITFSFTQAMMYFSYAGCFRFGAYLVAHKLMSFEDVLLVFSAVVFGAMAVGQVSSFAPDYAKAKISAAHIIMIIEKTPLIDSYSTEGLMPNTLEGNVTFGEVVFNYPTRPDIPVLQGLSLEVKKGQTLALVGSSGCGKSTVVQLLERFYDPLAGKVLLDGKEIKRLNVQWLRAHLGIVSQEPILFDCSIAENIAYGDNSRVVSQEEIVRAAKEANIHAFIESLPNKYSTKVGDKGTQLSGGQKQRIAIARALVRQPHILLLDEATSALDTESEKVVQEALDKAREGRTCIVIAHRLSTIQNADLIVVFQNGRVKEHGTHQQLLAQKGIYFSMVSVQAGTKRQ
Protocol for Pgp (LCC6MDR cells): Cell Proliferation Assay. 6,000 cells of LCC6 or LCC6MDR and anticancer drugs (paclitaxel, vinblastine, vincristine, doxorubicin and mitoxantrone) were mixed with or without modulators to a final volume of 200 μL in each well of 96-well plates. […] The plates were then incubated for 5 days at 37° C. […] IC50 values were calculated from the dose-response curves of MTS assays (Prism 4.0).

Regarding `CS(=O)(=O)N(CCOCCOc1ccc(-c2cc(=O)c3ccccc3o2)cc1)CCOCCOc1ccc(-c2cc(=O)c3ccccc3o2)cc1` [Compound 24, 1,13-Bis[4′-(4H-chromen-4-on-2-yl)phenyl]-N-(methanesulfonyl)-1,4,10,13-tetraoxa-7-azamidecane], the IC50 (in general, the concentration at which inhibition is half-maximal) at 72 h in data set [1] stood at 42.6 ± 5.4 µM; in data set [2], 27.5 ± 8.4 µM; in data set [3], 13.4 ± 3.9 µM. In addition, the IC50 in data set [4] turned out to be 0.5 µM; in data set [5] it was 1.5 µM; in the data set on Raw264.7 cells, 96 ± 4 µM. In addition, at Pgp (LCC6MDR cells), the “RF (Relative Fold), cpd at 0.5 μM” value is “(12.8)”.
`O=c1cc(-c2ccc(OCCOCCN(CCOCCOc3ccc(-c4cc(=O)c5ccccc5o4)cc3)Cc3cccc4ccccc34)cc2)oc2ccccc12` [Compound 59, 1,13-Bis[4′-(4H-chromen-4-on-2-yl)phenyl]-7-(1-naphthalenylmethyl)-1,4,10,13-tetraoxa-7-azamidecane]: the melting point (as a rule, the temperature, or range, at which the solid turns liquid) fell in the range of 96 to 97 °C. In data set [1], this molecule displayed an IC50 at 72 h of more than 100 µM. For the same molecule, the IC50 at 72 h in data set [2] is more than 100 µM. The IC50 at 72 h in data set [3] is more than 100 µM. For the same molecule, on Pgp (LCC6MDR cells), the “RF (Relative Fold), cpd at 0.5 μM” value is on record as “(2.2)” and the “RF (Relative Fold), cpd at 1 μM” value is listed as “(80.6)”.
Turning to `O=c1cc(-c2ccc(OCCOCCN(CCOCCOc3ccc(-c4cc(=O)c5ccccc5o4)cc3)Cc3cc4c(cc3Cl)OCO4)cc2)oc2ccccc12` [Compound 42f, 1,13-Bis[4′-(4H-chromen-4-on-2-yl)phenyl]-7-[5-(6-chloropiperonyl)]-1,4,10,13-tetraoxa-7-azamidecane], the IC50 at 72 h in data set [1], in data set [2] and in data set [3] was more than 100 µM in each case. Moreover, on Pgp (LCC6MDR cells), the “RF (Relative Fold), cpd at 0.5 μM” value is “(4.8)”. Besides, on Pgp (LCC6MDR cells), the “RF (Relative Fold), cpd at 1 μM” value is “(80.6)”.
Take `O=c1cc(-c2ccc(OCCOCCN(CCOCCOc3ccc(-c4cc(=O)c5ccccc5o4)cc3)Cc3ccc4ccccc4c3)cc2)oc2ccccc12` [Compound 58, 1,13-Bis[4′-(4H-chromen-4-on-2-yl)phenyl]-7-(2-naphthalenylmethyl)-1,4,10,13-tetraoxa-7-azamidecane]: in data set [1], half-maximal inhibition (IC50 at 72 h) was put at 8.9 ± 3.3 µM. In data set [2], this molecule displayed an IC50 at 72 h of 4.8 ± 0.4 µM. In data set [3], this molecule yielded an IC50 at 72 h of 5.1 ± 0.3 µM. On Pgp (LCC6MDR cells), the EC50 (commonly the concentration that produces a half-maximal response) amounted to 92 ± 11 nM; the Therapeutic index is 55.4; the “RF (Relative Fold), cpd at 0.5 μM” value is “(95.7)”; the “RF (Relative Fold), cpd at 1 μM” value is “(117.8)”.
With `O=c1cc(-c2ccc(OCCOCCNCCOCCOc3ccc(-c4cc(=O)c5cc(F)ccc5o4)cc3)cc2)oc2ccc(F)cc12` [Compound 12f, 1,13-Bis[4′-((6-fluoro)-4H-chromen-4-on-2-yl)phenyl]-1,4,10,13-tetraoxa-7-azamidecane], the IC50 at 72 h in data set [1] came to 3.3 ± 0.5 µM; in data set [2], 5.3 ± 1 µM; in data set [3] it was 5.7 ± 0.4 µM. The “RF (Relative Fold), cpd at 0.5 μM” value on Pgp (LCC6MDR cells) is “(72.9)”. The “RF (Relative Fold), cpd at 1 μM” value on Pgp (LCC6MDR cells) is “(109.4)”.
`O=C(c1ccccc1)N(CCOCCOc1ccc(-c2cc(=O)c3ccccc3o2)cc1)CCOCCOc1ccc(-c2cc(=O)c3ccccc3o2)cc1` [Compound 23d, 1,13-Bis[4′-(4H-chromen-4-on-2-yl)phenyl]-7-(benzoyl)-1,4,10,13-tetraoxa-7-azamidecane]: the values for the IC50 at 72 h in data set [1], in data set [2] and in data set [3] were more than 100 µM, more than 100 µM and 95 µM, respectively. Also, the “RF (Relative Fold), cpd at 0.5 μM” value on Pgp (LCC6MDR cells) is “(7.5)”.
On to `O=c1cc(-c2ccc(OCCOCCN(CCOCCOc3ccc(-c4cc(=O)c5ccccc5o4)cc3)Cc3ccc4ccccc4n3)cc2)oc2ccccc12` [Compound 64g, 1,13-Bis[4′-(4H-chromen-4-on-2-yl)phenyl]-7-(2-quinolinylmethyl)-1,4,10,13-tetraoxa-7-azamidecane], for which the IC50 at 72 h in data set [1] was more than 100 µM; in data set [2] it was more than 100 µM; in data set [3] it was 8.5 ± 2.3 µM. Further, at Pgp (LCC6MDR cells), the “RF (Relative Fold), cpd at 0.5 μM” value is “(66.6)”. For the same molecule, the “RF (Relative Fold), cpd at 1 μM” value on Pgp (LCC6MDR cells) is given as “(102.1)”.
`O=c1cc(-c2ccc(OCCOCCN(CCOCCOc3ccc(-c4cc(=O)c5ccccc5o4)cc3)Cc3cccc(-c4ccccc4)c3)cc2)oc2ccccc12` [Compound 56, 1,13-Bis[4′-(4H-chromen-4-on-2-yl)phenyl]-7-(3-phenylbenzyl)-1,4,10,13-tetraoxa-7-azamidecane]: the concentration for half-maximal inhibition (IC50) at 72 h in data set [1], in data set [2] and in data set [3] was more than 100 µM throughout. Also, the “RF (Relative Fold), cpd at 0.5 μM” value at Pgp (LCC6MDR cells) is recorded as “(2.7)”. The “RF (Relative Fold), cpd at 1 μM” value at Pgp (LCC6MDR cells) is “(38.5)”.
`O=c1cc(-c2ccc(OCCOCCN(CCOCCOc3ccc(-c4cc(=O)c5ccccc5o4)cc3)Cc3ccncn3)cc2)oc2ccccc12` [Compound 64e, 1,13-Bis[4′-(4H-chromen-4-on-2-yl)phenyl]-7-(4-pyrimidinylmethyl)-1,4,10,13-tetraoxa-7-azamidecane]: the IC50 at 72 h in data set [1], in data set [2] and in data set [3] was more than 50 µM each time. Further, the “RF (Relative Fold), cpd at 0.5 μM” value at Pgp (LCC6MDR cells) is listed as “(8.3)”. In addition, the “RF (Relative Fold), cpd at 1 μM” value on Pgp (LCC6MDR cells) is listed as “(61.2)”.
In turn, `CN(C)c1cccc2c(S(=O)(=O)N(CCOCCOc3ccc(-c4cc(=O)c5ccccc5o4)cc3)CCOCCOc3ccc(-c4cc(=O)c5ccccc5o4)cc3)cccc12` [Compound 25b, 1,13-Bis[4′-(4H-chromen-4-on-2-yl)phenyl]-7-(dansyl)-1,4,10,13-tetraoxa-7-azamidecane] came in with a melting point of 72 to 74 °C. This molecule registered a concentration for half-maximal inhibition (IC50) at 72 h in data set [1] of more than 100 µM. The molecule also had an IC50 at 72 h in data set [2] of more than 100 µM. Moreover, on Pgp (LCC6MDR cells), the “RF (Relative Fold), cpd at 0.5 μM” value is reported as “(1.4)”.
With `Cc1ccccc1CN(CCOCCOc1ccc(-c2cc(=O)c3ccccc3o2)cc1)CCOCCOc1ccc(-c2cc(=O)c3ccccc3o2)cc1` [Compound 46, 1,13-Bis[4′-(4H-chromen-4-on-2-yl)phenyl]-7-(2-methylbenzyl)-1,4,10,13-tetraoxa-7-azamidecane], the IC50 at 72 h in data set [1], in data set [2] and in data set [3] was more than 100 µM each time. Besides, the “RF (Relative Fold), cpd at 0.5 μM” value at Pgp (LCC6MDR cells) is recorded as “(32.6)”. Also, the “RF (Relative Fold), cpd at 1 μM” value at Pgp (LCC6MDR cells) is reported as “(117.8)”.
In turn, `O=c1cc(-c2ccc(OCCOCCN(CCOCCOc3ccc(-c4cc(=O)c5ccccc5o4)cc3)Cc3ccc(C(F)(F)F)cc3)cc2)oc2ccccc12` [Compound 35, 1,13-Bis[4′-(4H-chromen-4-on-2-yl)phenyl]-7-(4-trifluoromethylbenzyl)-1,4,10,13-tetraoxa-7-azamidecane] returned an IC50 at 72 h in data set [1] of more than 100 µM. This molecule registered an IC50 at 72 h in data set [2] of more than 100 µM. This molecule also yielded an IC50 at 72 h in data set [3] of 32.7 µM. At Pgp (LCC6MDR cells), the EC50 is 150 nM; the Therapeutic index turned out to be 218.0; the “RF (Relative Fold), cpd at 0.5 μM” value is “(37.3)”.
For the molecule `O=c1cc(-c2ccc(OCCOCCN(CCCc3ccccc3)CCOCCOc3ccc(-c4cc(=O)c5ccccc5o4)cc3)cc2)oc2ccccc12` [Compound 26, 1,13-Bis[4′-(4H-chromen-4-on-2-yl)phenyl]-N-(3-phenylpropyl)-1,4,10,13-tetraoxa-7-azamidecane], the figures for the IC50 at 72 h in data set [1], in data set [2] and in data set [3] were more than 100 µM, more than 100 µM and 9.5 µM, respectively. The figures for the IC50 (in data set [4]; in data set [5]; with Raw264.7 cells) were 8.9 µM, 18.4 µM and 85 µM, respectively. In addition, the EC50 on Pgp (LCC6MDR cells) came to 250 nM. Besides, the Therapeutic index at Pgp (LCC6MDR cells) was 38.0. Moreover, the “RF (Relative Fold), cpd at 0.5 μM” value on Pgp (LCC6MDR cells) is listed as “(12.5)”.
